This data set can be described thus: pH of reconstituted and diluted drug product solution. It counts as physicochemical. The following applies: lyophilized powder reconstituted with Water for Injection. Here is the method:
This solution is filled to deliver 105 mg/vial into a container closure system consisting of a USP Type 1 clear glass vial, stopper, and overseal. The drug product is stored at 2° C. to 8° C., away from light. Prior to administration the lyophilized powder is reconstituted with Water for Injection and then is further diluted in 0.9% Sodium Chloride Injection, USP to the target concentration prior to use. SDC-TRAP-0063 Sodium may have a concentration of between about 25 to about 50 mg/mL, between about 50 to about 100 mg/mL, between about 100 to about 150 mg/mL, or between about 150 to 200 mg/mL. The drug product is intended for intravenous administration by infusion.
The reconstituted solution of SDC-TRAP-0063 Sodium has a pH of 10.0. This solution is diluted to the target dose in 0.9% sodium chloride injection, USP. The pH of the infusion solution depends on the concentration of SDC-TRAP-0063 Sodium in the diluted infusion solution. Across the dose ranges employed in the clinical study protocol, the volume of the diluted infusion solution administered will range from 50 to 500 mL, and the pH will range from 8.1 to 9.6. In order to reduce the potential risks of injection site pain and/or damage to the venous endothelium during IV administration, a central venous access line is used for administration of the diluted SDC-TRAP-0063 Sodium.

Regarding `CCc1c2c(nc3ccc(OC(=O)N4CCC(CCn5ccc6cc(-n7c(O)nnc7-c7cc(C(C)C)c(O)cc7O)ccc65)CC4)cc13)-c1cc([C@@](O)(CC)C(=O)[O-])c(CO)c(=O)n1C2.[Na+]` [SDC-TRAP-0063 Sodium, Sodium (S)-2-(2-((4-(2-(5-(3-(2,4-dihydroxy-5-isopropylphenyl)-5-hydroxy-4H-1,2,4-triazol-4-yl)-1H-indol-1-yl)ethyl)piperidine-1-carbonyl)oxy)-12-ethyl-8-(hydroxymethyl)-9-oxo-9,11-dihydroindolizino[1,2-b]quinolin-7-yl)-2-hydroxybutanoate], the “pH of the reconstituted solution” value was 10.0.
